Data as given in PMC10166914, “GTN057, a komaroviquinone derivative, induced myeloma cells' death in vivo and inhibited c‐MET tyrosine kinase” (Cancer Medicine, 2023).
Several values for one entry are separate records, joined by “and”; a condition that tells them apart may be missing. Equal entries are not always repeated.

Assays:
[1] = Pharmacokinetic study, LC-MS/MS of plasma; type: in vivo, ICR mice
Procedure: For the pharmacokinetic study, 0 or 100 mg/kg of GTN057 (1% Tween® 80 + 10% DMSO in saline) was injected (i.p.) into male 5‐week‐old ICR mice. Peripheral blood samples were taken using heparinized hematocrit tubes from the tail vein of each mouse at 0, 15, and 30 min and 1, 2, 4, and 24 h. The blood samples were applied to centrifugation (1100 × g, 15 min at 4°C) and we then collected the supernatant plasma. […] (Wako) and MeOH (Kanto, Tokyo) for LC–MS/MS (liquid chromatography–tandem mass spectrometry) measurements were mixed in a 1:1 ratio, and verapamil hydrochloride (an internal standard substance) was dissolved to the final concentration of 120 ng/mL to prepare a deproteinizing agent. We diluted the blood samples four times with this deproteinizing agent. After 15 min on ice, each deproteinized plasma sample was centrifuged (9100 × g, 10 min, 4°C). The supernatants were collected and used for the LC–MS/MS analyses.
All compounds including GTN057 were analyzed with a mass spectrometer (AB SCIEX) coupled to an HPLC (high‐performance liquid chromatography) system (Shimadzu). The peptides were separated with the use of an Atlantis® dC18, 3‐μm, 100 Å column (Waters). The solvent composition was 15% for solution A (100 mM CH3COONH4) and 85% for solution B (CH3OH). The HPLC measurement settings were as follows. Constant flow rate: 0.2 mL/min, column temperature: 40°C. The MS settings were: spray voltage, 5500 V; turbo heater temperature, 300°C.

MUM24 cells = test: ROS production and growth recovery by anti-oxidants; type: cell-based, human
Procedure: First, 2 × 10^5 cells/mL of MUM24 cells were incubated with or without 6 mM NAC (N‐acetyl cysteine; Sigma‐Aldrich) or 3 mM GSH (glutathione; Sigma‐Aldrich) for 2 h. Next, 20 μM GTN057 was added and cultured for an additional 72 h. Cells were incubated with 1 μM CM‐H2DCFDA (i.e., 5‐(and‐6)‐chloromethyl‐2′, 7′‐dichlorodihydrofluorescein diacetate) for 30 min. For the evaluation of ROS production, the cells were stained with CM‐H2DCFDA and analyzed using a FACS (fluorescence‐activated cell sorting) system (LSR II, BD Biosciences). For the assessment of growth recovery by NAC or GSH, 2 × 10^5 cells/mL of MUM24 cells were also treated with 20 μM GTN057 in the presence or absence of 6 mM NAC or 3 mM GSH as described above. We conducted a trypan blue exclusion test to determine the numbers of viable cells.

[2] = male, mouse, ip, single i.p. injection 100 mg/kg, ICR mice, plasma

## COc1c(OC(C)=O)c2c(c(O)c1C(C)C)C(=O)CC1C(C)(C)CCC[C@]1(O)C2 (stereo partly shown) [GTN057]
[1]; [2]
  Cmax: 790 ng/mL and 1.95 µM
  Tmax: 30 min
[1]; plasma, LC-MS/MS, preliminary data
  Degradation in plasma: immediately dehydrated (m/z 387) or deacetylated (m/z 363) in plasma
[1]; single i.p. injection 100 mg/kg, ICR mice
  plasma disappearance half-time: 110 min
[1]; single i.p. injection 100 mg/kg, ICR mice, 24 h
  Presence in blood at 24 h post-injection: almost completely disappeared
MUM24 cells; 20 μM GTN057 with 6 mM NAC or 3 mM GSH
  Abrogation of growth inhibition and apoptosis by anti-oxidants: not significantly abrogated
MUM24 cells; 20 μM, MM cells, CM-H2DCFDA, FACS
  ROS production: produced ROS
